Measurements taken from patent publication US20070299092A1 (Wyeth, priority 2004, published 2007).
Several values for one entry are separate records, joined by “and”; a condition that tells them apart may be missing. Equal entries are not always repeated.

Columns and labels:
[1] = tested on: Human colon carcinoma DLD-1; assay: Growth of human tumor xenografts in the nude mouse model; conditions: for % T/C Day 7 / % T/C Day 14 / % T/C Day 21 / Relative tumor growth Day 7 / Relative tumor growth Day 14 / Relative tumor growth Day 21: DLD1, nude mouse
[2] = target: T1, human KDR (VEGF-receptor-2) (Homo sapiens, UniProt P35968); assay: KDR kinase enzyme assay wash-out experiments (irreversible inhibition); assay type: biochemical
T1 construct: beginning at Met-806; (5′-ATG GAT CCA GAT GM CTC CCA TTG) and ending at Val-1356; made in house
Protocol: To determine if compounds bound irreversibly to enzyme, plates were washed after the enzyme plus compound pre-incubation step and prior to the addition of ATP. Parallel plates were tested wherein one plate was processed exactly as above while a second plate was washed three times in 100 μl of 4 mM HEPES, pH 7.4, to remove unbound compound. 1× Kinase buffer (30 μl of 1 mM MnCl2, 4 mM HEPES, pH 7.4, 20 μM Na3VO4) and 20 μl of ATP/MgCl2 were added to the wash-out plate. Detection of phosphotyrosinylated peptide for both plates was performed as described above.
For each inhibitor shown in Table 2, two IC50 determinations are shown, one under normal conditions and the other where an intermediate wash-out step is carried out. […] If there was a large increase in the IC50 value in the wash-out experiment compared to the experiment where there was no wash-out, then it was determined that the compound was behaving as a conventional reversible binding inhibitor.

KDR = KDR (Homo sapiens, UniProt P35968); assay: cell-based; conditions: IC50 (nM), inhibition of KDR kinase autophosphorylation in KDR15 cells, KDR15 cells, VEGF 50 ng/ml, phospho-KDR-Y996 immunoblot
[3] = tested on: Human umbilical vein endothelial cells (HUVEC); assay: HUVEC proliferation assay, VEGF-dependent growth ([3H]-thymidine incorporation); assay type: cell-based; conditions: conc. 10000 nM
Protocol: Cells were plated into 96-well dishes (4000 cells per well) and allowed to attach overnight. HUVEC were rinsed one time with 100 μl of EBMc-V (EBM supplemented with all above components except serum or VEGF), then 50 ul of EBMc-V was added to cells. Compounds were prepared at 200× stocks in DMSO, diluted into EBMc-V media as 4× stocks, then 50 ul added to appropriate wells. Finally, 100 μl of 2×VEGF (100 ng/ml prepared in EBMc-V; final 50 ng/ml VEGF) was added to all VEGF-treated wells. EBMc-V (no VEGF) was added to negative control wells. Parallel compound-treated plates were prepared except that 100 μl of EGM2 media containing 2% serum but lacking VEGF (EGMc-V) was added. Cells were incubated for 4-5 days at 37° C.
DNA synthesis was assessed by thymidine incorporation. Cells were incubated for 5 hours in 1 μCi of [^3H]-thymidine (PerkinElmer) by addition of 10 ul of 0.1 μCi/ul thymidine prepared in PBS to each well. After incubation, media was aspirated and the cells trypsinized and collected onto a mat using a vacuum-based Micro Cell Harvester (Skatron). [^3H]-thymidine was counted in a liquid scintillation counter. Compounds evaluated for ability to inhibit VEGF-dependent growth of human umbilical vein endothelial cells (HUVEC).

[4] = Table 6, dose not given, administered on days 1 through 20
[5] = 50 mg/kg/dose PO, days 1 through 20
[6] = 100 mg/kg/dose PO, days 1 through 20

T1 sequence (P35968 806-1356): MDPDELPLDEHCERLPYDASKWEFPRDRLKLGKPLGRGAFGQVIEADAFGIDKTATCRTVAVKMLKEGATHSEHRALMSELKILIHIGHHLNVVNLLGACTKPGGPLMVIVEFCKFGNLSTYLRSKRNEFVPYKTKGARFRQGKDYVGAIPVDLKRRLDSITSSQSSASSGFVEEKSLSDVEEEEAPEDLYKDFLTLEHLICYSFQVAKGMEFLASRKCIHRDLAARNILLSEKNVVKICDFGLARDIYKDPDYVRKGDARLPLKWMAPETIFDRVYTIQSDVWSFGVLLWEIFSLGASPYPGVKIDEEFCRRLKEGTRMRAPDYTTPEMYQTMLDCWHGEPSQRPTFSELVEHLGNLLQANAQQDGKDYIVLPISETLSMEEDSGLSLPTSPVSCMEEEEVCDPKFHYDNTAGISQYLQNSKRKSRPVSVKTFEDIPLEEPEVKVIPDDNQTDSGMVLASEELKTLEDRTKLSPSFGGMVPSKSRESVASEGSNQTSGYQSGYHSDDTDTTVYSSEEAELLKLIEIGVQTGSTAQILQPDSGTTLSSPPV
Chain of KDR (P35968 20-1356): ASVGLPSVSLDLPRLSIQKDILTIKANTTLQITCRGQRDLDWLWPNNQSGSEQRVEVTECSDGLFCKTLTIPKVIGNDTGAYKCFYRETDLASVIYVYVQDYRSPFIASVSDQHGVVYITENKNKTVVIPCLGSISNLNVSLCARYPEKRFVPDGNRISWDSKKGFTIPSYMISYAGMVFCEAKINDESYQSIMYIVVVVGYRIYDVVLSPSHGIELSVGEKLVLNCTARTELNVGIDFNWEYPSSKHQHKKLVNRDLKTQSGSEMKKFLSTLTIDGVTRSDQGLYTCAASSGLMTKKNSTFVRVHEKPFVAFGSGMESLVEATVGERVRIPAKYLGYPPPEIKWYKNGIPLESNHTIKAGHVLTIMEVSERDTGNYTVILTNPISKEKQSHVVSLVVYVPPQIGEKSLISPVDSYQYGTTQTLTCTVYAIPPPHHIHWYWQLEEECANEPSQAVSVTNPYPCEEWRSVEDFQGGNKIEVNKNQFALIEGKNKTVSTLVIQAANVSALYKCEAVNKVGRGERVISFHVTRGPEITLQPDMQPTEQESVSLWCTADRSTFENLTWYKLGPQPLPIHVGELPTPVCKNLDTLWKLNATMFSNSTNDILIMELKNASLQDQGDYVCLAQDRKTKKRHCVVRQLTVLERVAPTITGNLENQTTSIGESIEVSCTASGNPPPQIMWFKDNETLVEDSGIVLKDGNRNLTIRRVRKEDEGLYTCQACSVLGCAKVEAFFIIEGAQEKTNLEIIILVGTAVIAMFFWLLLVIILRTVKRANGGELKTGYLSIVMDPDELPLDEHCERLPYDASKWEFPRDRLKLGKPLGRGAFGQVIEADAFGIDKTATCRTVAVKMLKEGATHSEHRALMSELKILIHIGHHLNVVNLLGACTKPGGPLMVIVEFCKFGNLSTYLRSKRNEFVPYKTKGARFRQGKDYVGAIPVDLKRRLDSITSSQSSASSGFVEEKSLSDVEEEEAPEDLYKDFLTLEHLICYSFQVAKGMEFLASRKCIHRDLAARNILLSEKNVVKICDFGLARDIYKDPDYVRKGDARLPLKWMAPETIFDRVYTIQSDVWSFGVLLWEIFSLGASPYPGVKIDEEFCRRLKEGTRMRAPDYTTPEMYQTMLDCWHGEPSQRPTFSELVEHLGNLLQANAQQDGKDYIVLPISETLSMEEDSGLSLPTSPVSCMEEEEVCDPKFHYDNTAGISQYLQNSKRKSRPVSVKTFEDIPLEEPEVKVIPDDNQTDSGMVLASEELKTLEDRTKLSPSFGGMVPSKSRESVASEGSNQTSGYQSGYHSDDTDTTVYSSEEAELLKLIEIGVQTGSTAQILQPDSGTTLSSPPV

COc1cc2ncnc(NC3=CC(=O)C4(C(C)C)OC4C3=O)c2cc1OC (centres unmarked) [Example 107, 4-[(6,7-dimethoxy-4-quinazolinyl)amino]-1-isopropyl-7-oxabicyclo[4.1.0]hept-3-ene-2,5-dione]
melting point: 188 to 190 °C

COCCOc1cc2ncnc(NC3=C(SC)C(=O)C(Cl)=C(OC)C3=O)c2cc1OC [Example 190, 2-chloro-3-methoxy-5-{[6-methoxy-7-(2-methoxyethoxy)quinazolin-4-yl]amino}-6-(methylthio)benzo-1,4-quinone]
% T/C Day 7 [1, 4]: 61% | % T/C Day 14 [1, 4]: 94% | % T/C Day 21 [1, 4]: 76% | Relative tumor growth Day 7 [1, 4]: 1.58 | Relative tumor growth Day 14 [1, 4]: 7.41 | Relative tumor growth Day 21 [1, 4]: 10.74

COCCOc1cc2ncnc(NC3=CC(=O)C(OCCN(C)c4ccccc4)=CC3=O)c2cc1OC [Example 222, 2-{[6-methoxy-7-(2-methoxyethoxy)quinazolin-4-yl]amino}-5-{2-[methyl(phenyl)amino]ethoxy}benzo-1,4-quinone]
IC50 ([2]; no wash): 0.0786 µM | IC50 ([2]; wash out): 0.128 µM | IC50 (KDR): 175 to 210 nM

COCCOc1cc2ncnc(NC3=CC(=O)C(Br)=CC3=O)c2cc1OC [Example 231, 2-bromo-5-{[6-methoxy-7-(2-methoxyethoxy)quinazolin-4-yl]amino}benzo-1,4-quinone]
melting point: 200 to 210 °C

COCCOC1=CC(=O)C(Nc2ncnc3cc(OCCOC)c(OC)cc23)=CC1=O
melting point: 211 to 212 °C

COCCOc1cc2ncnc(NC3=CC(=O)C(Oc4ccccc4)=CC3=O)c2cc1OC
melting point: 177 to 180 °C

COc1cc2c(NC3=CC(=O)C(Cl)=CC3=O)ncnc2cc1OCC1CCCCO1 (centres unmarked) [Example 345, 2-chloro-5-{[6-methoxy-7-(tetrahydro-2H-pyran-2-ylmethoxy)quinazolin-4-yl]amino}benzo-1,4-quinone]
melting point: 215 to 220 °C

COCCOc1cc2ncnc(NC3=CC(=O)C(N4CCCC4C(F)(F)F)=CC3=O)c2cc1OC (centres unmarked) [Example 150, 2-{[6-methoxy-7-(2-methoxyethoxy)quinazolin-4-yl]amino}-5-[2-(trifluoromethyl)pyrrolidin-1-yl]benzo-1,4-quinone]
% T/C Day 7 [1, 4]: 63% | % T/C Day 14 [1, 4]: 82% | % T/C Day 21 [1, 4]: 88% | Relative tumor growth Day 7 [1, 4]: 1.62 | Relative tumor growth Day 14 [1, 4]: 6.45 | Relative tumor growth Day 21 [1, 4]: 12.54

COc1cc2ncnc(NC3=CC(=O)C4(c5ccccc5)OC4C3=O)c2cc1OC (centres unmarked) [Example 100, 4-[(6,7-dimethoxyquinazolin-4-yl)amino]-1-phenyl-7-oxabicyclo[4.1.0]hept-3-ene-2,5-dione]
melting point: 252 to 253 °C

COCCOc1cc2ncnc(NC3=CC(=O)C(OCC4CC4)=CC3=O)c2cc1OC [Example 213, 2-(cyclopropylmethoxy)-5-{[6-methoxy-7-(2-methoxyethoxy)quinazolin-4-yl]amino}benzo-1,4-quinone]
IC50 ([2]; no wash): 0.0047 µM | IC50 ([2]; wash out): 0.0169 µM | IC50 (KDR): 236 to 400 nM

COCCOc1cc2ncnc(NC3=CC(=O)C(Oc4ccc(-n5ccnc5)cc4)=CC3=O)c2cc1OCCOC [Example 341, 2-{[6,7-bis(2-methoxyethoxy)quinazolin-4-yl]amino}-5-[4-(1H-imidazol-1-yl)phenoxy]benzo-1,4-quinone]
melting point: 109 to 115 °C

COCCOc1cc2ncnc(NC3=CC(=O)C(Oc4ccc(-n5ccnc5)cc4)=CC3=O)c2cc1OC [Example 26, 2-[4-(1H-imidazol-1-yl)phenoxy]-5-{[6-methoxy-7-(2-methoxyethoxy)quinazolin-4-yl]amino}benzo-1,4-quinone]
inhibition at 10 µM ([3]; Homo sapiens, HUVEC): 89% | % Inhibition of VEGF-dependent growth of HUVEC [3]: 96% and 99% and 95% and 87% and 91% | S/T = # of Survivors/# of Treated on Day +21 post tumor staging [1, 5]: 5/5 | % T/C Day 7 [1, 5]: 84% | % T/C Day 14 [1, 5]: 62% | % T/C Day 21 [1, 5]: 61% | Relative tumor growth Day 7 [1, 5]: 4.21 | Relative tumor growth Day 14 [1, 5]: 6.93 | Relative tumor growth Day 21 [1, 5]: 10.50 | S/T = # of Survivors/# of Treated on Day +21 post tumor staging [1, 6]: 5/5 | % T/C Day 7 [1, 6]: 67% | % T/C Day 14 [1, 6]: 55% | % T/C Day 21 [1, 6]: 51% | Relative tumor growth Day 7 [1, 6]: 3.36 | Relative tumor growth Day 14 [1, 6]: 6.10 | Relative tumor growth Day 21 [1, 6]: 8.80
